Earlier results on one molecule are cited in US20260232611A1, “USE OF (S)-3-AMINO-4-(DIFLUOROMETHYLENYL) CYCLOPENT-1-ENE-1-CARBOXYLIC ACID IN THE TREATMENT OF RHEUMATOID ARTHRITIS” (Ovid Therapeutics Inc., priority 2023, published 2026).

In data set [1] the test system is alanine aminotransferase (Ala-AT). The following applies: unlike vigabatrin.
Data set [2] concerns aspartate aminotransferase (Asp-AT). The following applies: unlike vigabatrin.

Consider `N[C@H]1C[C@@H](C(=O)O)CC1=C(F)F` [CPP-115, (1S,3S)-3-amino+difluoromethylenyl-1-cyclopentanoic acid], for which the “inactivation or inhibition of off-target enzyme” value in data set [1] and in data set [2] was “not to inactivate or inhibit” throughout.
